In ChEMBL document CHEMBL5614418, “Discovery of novel dihydropyrrolidone-thiadiazole compound crosstalk between the YycG/F two-component regulatory pathway and cell membrane homeostasis to combat methicillin-resistant Staphylococcus aureus” (Eur J Med Chem, 2024):
≈ marks a conversion by molar mass, not a printed value. Calls of active or inactive are those of the source. No cut-off for these calls is given here.

Tests used:
[1] = system: Staphylococcus aureus; assay: Induction of matured biofilm eradication in methicillin resistant Staphylococcus aureus YUSA145 assessed as log reduction in bacterial count in biofilm at 8 MIC incubated for 48 hrs by agar plate method; type: functional
[2] = system: Staphylococcus epidermidis; assay: Induction of matured biofilm eradication in Staphylococcus epidermidis SE1457 assessed as reduction in bacterial survival in biofilm at 8 times MIC incubated for 48 hrs in presence of daptomycin by SYTO 9 staining based confocal fluorescence microscopic analysis; type: functional
[3] = system: Staphylococcus epidermidis; assay: Antibacterial activity against methicillin resistant Staphylococcus epidermidis SE1457 infected in BALB/c mouse wound model assessed as log reduction in wound bacterial load at 20 mg/kg, ip administered every 12 hrs for 3 times and measured after 48 hrs; type: functional
[4] = system: Staphylococcus aureus; assay: Inhibition of bacterial growth in methicillin resistant Staphylococcus aureus USA300 at 1/2 MIC concentration measured upto 16 hrs; type: functional, organism-based
[5] = system: Enterococcus faecium; assay: Bactericidal activity against Enterococcus faecium EFM64; type: functional
[6] = system: Staphylococcus aureus; assay: Antibacterial activity against methicillin sensitive Staphylococcus aureus SA113 in presence of palmitic acid; type: functional, organism-based
[7] = system: Cell membrane; assay: Induction of cell membrane disruption in methicillin sensitive Staphylococcus aureus SA113 at 4 times MIC incubated for 2 hrs by TEM analysis; type: cell membranes
[8] = system: Staphylococcus epidermidis; assay: Antibacterial activity against Staphylococcus epidermidis SE1457 in presence of palmitic acid; type: functional, organism-based
[9] = system: Staphylococcus aureus; assay: Antibacterial activity against methicillin sensitive Staphylococcus aureus SA113 assessed as fold increase in MIC in presence of phosphatidylcholine by chequerboard microdilution assay; type: functional
[10] = system: Staphylococcus aureus; assay: Antibacterial activity against methicillin resistant Staphylococcus aureus USA300 infected in BALB/c mouse pneumonia model assessed as log reduction in lung bacterial count at 20 mg/kg, ip administered every 12 hrs for 3 times and measured after 48 hrs; type: functional
[11] = system: Staphylococcus aureus; assay: Inhibition of biofilm formation in methicillin resistant Staphylococcus aureus YUSA145 at 1/2 MIC incubated for 16 hrs by SEM analysis; type: functional, organism-based
[12] = system: Staphylococcus epidermidis; assay: Inhibition of bacterial growth in Staphylococcus epidermidis SE1457 at MIC concentration measured upto 16 hrs; type: functional
[13] = system: Staphylococcus aureus; assay: Antibacterial activity against methicillin resistant Staphylococcus aureus YUSA145; type: functional
[14] = system: Staphylococcus aureus; assay: Downregulation of arcC1 expression level in methicillin sensitive Staphylococcus aureus SA113 at 1/2 MIC incubated for 2 hrs by MS/MS analysis; type: functional
[15] = system: Enterococcus faecium; assay: Antibacterial activity against Enterococcus faecium EFM64 by broth microdilution method; type: functional
[16] = system: Staphylococcus epidermidis; assay: Synergistic antibacterial activity against Staphylococcus epidermidis SE1457 in presence of linezolid; type: functional, organism-based
[17] = Toxicity in BALB/c mouse assessed as change in BUN level at 50 mg/kg, ip measured after 1 to 3 days; type: organism-based; details: in vivo, time 1-3 day
[18] = Toxicity in BALB/c mouse assessed as change in Na+ level at 50 mg/kg, ip measured after 1 to 3 days; type: organism-based; details: in vivo, time 1-3 day
[19] = system: Staphylococcus epidermidis; assay: Antibacterial activity against Staphylococcus epidermidis SE1457 in presence of oleic acid; type: functional, organism-based
[20] = system: Staphylococcus aureus; assay: Antibacterial activity against methicillin sensitive Staphylococcus aureus SA113 in presence of oleic acid; type: functional, organism-based
[21] = system: Staphylococcus aureus; assay: Inhibition of bacterial growth in methicillin sensitive Staphylococcus aureus SA113 at 1/2 MIC concentration measured upto 16 hrs; type: functional, organism-based
[22] = Toxicity in BALB/c mouse assessed as change in AST level at 50 mg/kg, ip measured after 1 to 3 days; type: organism-based; details: in vivo, time 1-3 day
[23] = system: Staphylococcus aureus; assay: Downregulation of pflA expression level in methicillin sensitive Staphylococcus aureus SA113 at 1/2 MIC incubated for 2 hrs by MS/MS analysis; type: functional
[24] = system: Staphylococcus aureus; assay: Downregulation of fructosre-1, 6-diphosphate level in methicillin sensitive Staphylococcus aureus SA113 at 1/2 MIC incubated for 30 mins; type: functional
[25] = system: Staphylococcus aureus; assay: Antibacterial activity against methicillin sensitive Staphylococcus aureus SA113 assessed as fold increase in MIC in presence of phosphatidyl glycerol by chequerboard microdilution assay; type: functional
[26] = target: T1, Sensor protein kinase WalK (Staphylococcus aureus, UniProt Q9RDT3); assay: Inhibition of Staphylococcus aureus YycG expressed in Escherichia coli preincubated for 30 mins followed by ATP addition and measured after 30 mins by kinase-Glo luminescent assay
T1 sequence (Q9RDT3 whole entry): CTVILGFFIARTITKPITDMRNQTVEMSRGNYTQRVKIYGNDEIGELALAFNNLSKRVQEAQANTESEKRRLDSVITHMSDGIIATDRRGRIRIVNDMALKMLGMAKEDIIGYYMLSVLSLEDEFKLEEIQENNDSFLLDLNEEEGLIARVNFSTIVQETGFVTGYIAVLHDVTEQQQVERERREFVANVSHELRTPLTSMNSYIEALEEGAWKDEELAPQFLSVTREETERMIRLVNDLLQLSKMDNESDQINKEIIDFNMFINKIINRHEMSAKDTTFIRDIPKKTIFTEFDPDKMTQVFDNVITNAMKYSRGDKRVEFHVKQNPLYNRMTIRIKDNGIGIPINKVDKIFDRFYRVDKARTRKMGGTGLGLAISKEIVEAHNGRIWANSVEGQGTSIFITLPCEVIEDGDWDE

[27] = system: Staphylococcus aureus; assay: Downregulation of pflB gene expression level in methicillin sensitive Staphylococcus aureus SA113 at 1/2 MIC by RT-qPCR analysis; type: functional
[28] = system: Staphylococcus epidermidis; assay: Synergistic antibacterial activity against Staphylococcus epidermidis SE1457 assessed as fold increase in MIC in presence of daptomycin; type: functional
[29] = system: Staphylococcus aureus; assay: Antibacterial activity against methicillin sensitive Staphylococcus aureus SA113 assessed as fold increase in MIC in presence of phosphatidyl ethanolamine by chequerboard microdilution assay; type: functional
[30] = system: Staphylococcus aureus; assay: Inhibition of bacterial growth in methicillin resistant Staphylococcus aureus USA300 at MIC concentration measured upto 16 hrs; type: functional
[31] = Toxicity in BALB/c mouse assessed as change in K+ level at 50 mg/kg, ip measured after 1 to 3 days; type: organism-based; details: in vivo, time 1-3 day
[32] = system: Staphylococcus aureus; assay: Antibacterial activity against methicillin sensitive Staphylococcus aureus SA113 assessed as reduction in membrane fluidity at 1 to 4 times MIC incubated for 30 mins by fluorescence based assay; type: functional, organism-based
[33] = system: Staphylococcus aureus; assay: Downregulation of acetyl-CoA level in methicillin sensitive Staphylococcus aureus SA113 at 1/2 MIC incubated for 30 mins; type: functional
[34] = system: Staphylococcus aureus; assay: Synergistic antibacterial activity against methicillin resistant Staphylococcus aureus USA300 assessed as fold increase in MIC in presence of daptomycin; type: functional
[35] = system: Staphylococcus epidermidis; assay: Synergistic bactericidal activity against Staphylococcus epidermidis SE1457 assessed as planktonic cells killing by measuring log reduction in bacterial count at 8 times MIC measured after 24 hrs in presence of daptomycin; type: functional
[36] = system: Staphylococcus aureus; assay: Downregulation of arcC2 expression level in methicillin sensitive Staphylococcus aureus SA113 at 1/2 MIC incubated for 2 hrs by MS/MS analysis; type: functional
[37] = system: Staphylococcus aureus; assay: Downregulation of pflB expression level in methicillin sensitive Staphylococcus aureus SA113 at 1/2 MIC incubated for 2 hrs by MS/MS analysis; type: functional
[38] = system: Staphylococcus aureus; assay: Antibacterial activity against methicillin resistant Staphylococcus aureus USA300 by broth microdilution method; type: functional

## O=C(C1=C(O)C(=O)N(c2nnc(SCc3ccccc3Cl)s2)C1c1ccccc1O)c1cc2ccccc2o1 (centres undefined)
[1]
  log(activity): 1
[2]
  Activity: >70%
[3]
  log(activity): 1
[4]
  growth inhibition (GI): Active
[5]
  MBC: 100 µM (≈ 57.6 µg/mL)
[6]
  Activity: inactive
[7]
  Activity: Active
[8]
  Activity: inactive
[9]
  fold change (FC): 16
[10]
  log(activity): 2
[11]
  inhibition: Active
[12]
  inhibition (INH): 100%
[13]
  MIC: 12.5 µM (≈ 7.2 µg/mL)
[14]
  Activity: Active
[15]
  MIC50: ≥ 50 µM
  MIC90: ≥ 50 µM
[16]
  Activity: inactive
[17]
  Activity: Non-Toxic
[18]
  Activity: Non-Toxic
[19]
  Activity: inactive
[20]
  Activity: inactive
[21]
  growth inhibition (GI): Active
[22]
  Activity: Non-Toxic
[23]
  Activity: Active
[24]
  Activity: Active
[25]
  fold change (FC): 16
[26]
  IC50: 19.5 µM
[27]
  Activity: Active
[28]
  fold change (FC): 2
[29]
  fold change (FC): 16
[30]
  inhibition (INH): 100%
[31]
  Activity: Non-Toxic
[32]
  Activity: Active
[33]
  Activity: Active
[34]
  fold change (FC): 2
[35]
  log(activity): 4.5
[36]
  Activity: Active
[37]
  Activity: Active
[38]
  MIC: 12.5 µM (≈ 7.2 µg/mL)
